BindingDB's records for doi:10.1021/jm060978s (Daiichi Asubio Medical Research Laboratories, 2006)
Each block holds one compound with its values, some of them ahead of it.

What was measured:
Assay in all cases: Enzyme Inhibition Assay
Coagulation factor XI = Coagulation factor XI (Homo sapiens, UniProt P03951); conditions: pH 7.4; 30 °C
Prothrombin = Prothrombin (Homo sapiens, UniProt P00734)
Coagulation factor X = Coagulation factor X (Homo sapiens, UniProt P00742)
Coagulation factor X, sequence (P00742 41-179 limits assumed): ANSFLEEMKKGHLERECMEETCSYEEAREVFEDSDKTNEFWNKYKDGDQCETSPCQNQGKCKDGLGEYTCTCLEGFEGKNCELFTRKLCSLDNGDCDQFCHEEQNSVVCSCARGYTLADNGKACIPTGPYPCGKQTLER
Coagulation factor X, sequence (P00742 235-488 limits assumed): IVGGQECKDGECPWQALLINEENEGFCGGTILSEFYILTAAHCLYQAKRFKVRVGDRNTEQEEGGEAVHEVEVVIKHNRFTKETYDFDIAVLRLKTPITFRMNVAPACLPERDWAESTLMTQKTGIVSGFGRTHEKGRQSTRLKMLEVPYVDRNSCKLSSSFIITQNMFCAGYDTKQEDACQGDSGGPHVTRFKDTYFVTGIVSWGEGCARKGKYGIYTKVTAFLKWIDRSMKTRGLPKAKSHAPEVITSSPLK

Coagulation factor XI, sequence (P03951 19-387 limits assumed): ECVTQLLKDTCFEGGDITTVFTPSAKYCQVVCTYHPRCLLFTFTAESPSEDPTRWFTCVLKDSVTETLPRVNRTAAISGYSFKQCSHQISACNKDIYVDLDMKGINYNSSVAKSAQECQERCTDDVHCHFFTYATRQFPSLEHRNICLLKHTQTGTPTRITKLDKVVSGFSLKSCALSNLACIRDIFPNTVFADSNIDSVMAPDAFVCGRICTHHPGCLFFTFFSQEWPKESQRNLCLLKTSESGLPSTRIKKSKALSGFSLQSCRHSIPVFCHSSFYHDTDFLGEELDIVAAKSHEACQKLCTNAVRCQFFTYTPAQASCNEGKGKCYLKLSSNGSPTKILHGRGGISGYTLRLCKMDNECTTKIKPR
Coagulation factor XI, sequence (P03951 388-625 limits assumed): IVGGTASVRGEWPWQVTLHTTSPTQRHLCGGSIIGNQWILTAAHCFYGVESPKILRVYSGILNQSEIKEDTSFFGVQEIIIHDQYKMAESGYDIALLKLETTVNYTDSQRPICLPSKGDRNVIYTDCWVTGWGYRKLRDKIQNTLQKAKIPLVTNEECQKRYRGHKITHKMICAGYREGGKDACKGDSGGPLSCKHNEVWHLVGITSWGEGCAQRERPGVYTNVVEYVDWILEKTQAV

SMILES: CCOC(=O)C(CC(C)C)NC(=O)N[C@@H](Cc1ccccc1)C(=O)N[C@H](C(=O)N[C@@H](CCCN=C(N)N)C(=O)c1nccs1)C(C)C (stereo partly drawn) [ethyl 2-({[(1S)-1-{[(1S)-1-{[(2S)-5-carbamimidamido-1-oxo-1-(1,3-thiazol-2-yl)pentan-2-yl]carbamoyl}-2-methylpropyl]carbamoyl}-2-phenylethyl]carbamoyl}amino)-4-methylpentanoate]
IC50 (Coagulation factor XI): 403 nM
IC50 (Prothrombin): 2100 nM
IC50 (Coagulation factor X): 15400 nM

SMILES: CC(C)[C@H](NC(=O)[C@H](Cc1ccccc1)NC(=O)NCc1ccc(F)cc1)C(=O)N[C@@H](CCCN=C(N)N)C(=O)c1nccs1 [(2S)-N-[(2S)-5-carbamimidamido-1-oxo-1-(1,3-thiazol-2-yl)pentan-2-yl]-2-[(2S)-2-({[(4-fluorophenyl)methyl]carbamoyl}amino)-3-phenylpropanamido]-3-methylbutanamide]
IC50 (Coagulation factor XI): 160 nM
IC50 (Prothrombin): 4300 nM

SMILES: CC(C)[C@H](NC(=O)[C@H](Cc1ccccc1)NC(=O)c1ccco1)C(=O)N[C@@H](CCCN=C(N)N)C(=O)c1nccs1 [(2S)-N-[(2S)-5-carbamimidamido-1-oxo-1-(1,3-thiazol-2-yl)pentan-2-yl]-2-[(2S)-2-(furan-2-ylformamido)-3-phenylpropanamido]-3-methylbutanamide]
IC50 (Coagulation factor XI): 2200 nM

SMILES: CC(C)[C@H](NC(=O)[C@H](Cc1ccccc1)NC(=O)NCc1ccc(Cl)c(Cl)c1)C(=O)N[C@@H](CCCN=C(N)N)C(=O)c1nccs1 [(2S)-N-[(2S)-5-carbamimidamido-1-oxo-1-(1,3-thiazol-2-yl)pentan-2-yl]-2-[(2S)-2-({[(3,4-dichlorophenyl)methyl]carbamoyl}amino)-3-phenylpropanamido]-3-methylbutanamide]
IC50 (Coagulation factor XI): 93 nM
IC50 (Prothrombin): 6700 nM
IC50 (Coagulation factor X): 14200 nM

SMILES: CC(C)[C@H](NC(=O)[C@H](Cc1ccccc1)NC(=O)Cc1cccs1)C(=O)N[C@@H](CCCN=C(N)N)C(=O)c1nccs1 [(2S)-N-[(2S)-5-carbamimidamido-1-oxo-1-(1,3-thiazol-2-yl)pentan-2-yl]-3-methyl-2-[(2S)-3-phenyl-2-[1-(thiophen-2-yl)acetamido]propanamido]butanamide]
IC50 (Coagulation factor XI): 2600 nM

SMILES: CC(C)[C@H](NC(=O)[C@H](Cc1ccccc1)NS(=O)(=O)c1ccc(Cl)c(Cl)c1)C(=O)N[C@@H](CCCN=C(N)N)C(=O)c1nccs1 [(2S)-N-[(2S)-5-carbamimidamido-1-oxo-1-(1,3-thiazol-2-yl)pentan-2-yl]-2-[(2S)-2-[(3,4-dichlorobenzene)sulfonamido]-3-phenylpropanamido]-3-methylbutanamide]
IC50 (Coagulation factor XI): 2300 nM

Now from value to compound:

IC50 (Coagulation factor XI): 258 nM
IC50 (Prothrombin): 2100 nM
IC50 (Coagulation factor X): 14300 nM
SMILES: CCOC(=O)C(Cc1ccccc1)NC(=O)N[C@@H](Cc1ccccc1)C(=O)N[C@H](C(=O)N[C@@H](CCCN=C(N)N)C(=O)c1nccs1)C(C)C (stereo partly drawn) [ethyl 2-({[(1S)-1-{[(1S)-1-{[(2S)-5-carbamimidamido-1-oxo-1-(1,3-thiazol-2-yl)pentan-2-yl]carbamoyl}-2-methylpropyl]carbamoyl}-2-phenylethyl]carbamoyl}amino)-3-phenylpropanoate]

IC50 (Coagulation factor XI): 1920 nM
IC50 (Prothrombin): 935 nM
IC50 (Coagulation factor X): > 20000 nM
SMILES: CC(C)[C@H](NC(=O)[C@H](Cc1ccccc1)NC(=O)Nc1ccccc1)C(=O)N[C@@H](CCCN=C(N)N)C(=O)c1nccs1 [(2S)-N-[(2S)-5-carbamimidamido-1-oxo-1-(1,3-thiazol-2-yl)pentan-2-yl]-3-methyl-2-[(2S)-3-phenyl-2-[(phenylcarbamoyl)amino]propanamido]butanamide]
